Experiments:
Assay type in all cases: biochemical
[1] = biological target: recombinant human PI3Kδ (6-His(p110-p85α)) (Homo sapiens (Human), UniProt O00329); assay: Enzymatic activity assay for recombinant human PI3Kδ (ADP-Glo); settings: 0.6 nM PI3Kδ, 20 μM ATP, 80 μM DiC8-PIP2, ADP-Glo
Description: (§1) Enzymatic Activity Assay for Recombinant Human PI3K α, β, δ and γ.
(§2) The activity of recombinant human PI3Kγ ((aa144-1102)-6His) and PI3Kα, β, δ (6-His(p110-p85α)) was determined by measuring the ADP level after phosphorylation of DiC8-PIP2 using a commercially available ADP-Glo™ kit from Promega. The assay was carried out in white low volume 384 well plates in a final volume of 14 μl at R.T. The assay conditions contained the following: 50 mM Tris buffer pH 7.4, 2.1 mM DTT, 3 mM MgCl2, 0.05% CHAPS, 20 μM ATP, 80 μM DiC8-PIP2 and 1.2 nM PI3Kα, β, γ or 0.6 nM PI3Kδ. […] Routinely, inhibitors were pre-incubated with 3 μl of enzyme for 15 min prior to the addition of 2 μl substrate mixture for a further 60 min enzyme reaction. The phosphorylation was stopped with the addition of 3 μl ADP-Glo™ reagent (stop solution) followed by a 40 min incubation. Prior to detection 6 μl of ADP-Glo™ Kinase Detection Reagent was added and the plates were read in a micro plate reader using a Luminescence filter. All additions were followed by a short centrifugation step.

[2] = biological target: recombinant human PI3Kγ ((aa144-1102)-6His) (Homo sapiens (Human), UniProt P48736); assay: Enzymatic activity assay for recombinant human PI3Kγ (ADP-Glo); settings: 1.2 nM PI3Kγ, 20 μM ATP, 80 μM DiC8-PIP2, ADP-Glo
Description: as §1, §2

[3] = biological target: recombinant human PI3Kα (6-His(p110-p85α)) (Homo sapiens (Human), UniProt P42336); assay: Enzymatic activity assay for recombinant human PI3Kα (ADP-Glo); settings: 1.2 nM PI3Kα, 20 μM ATP, 80 μM DiC8-PIP2, ADP-Glo
Description: as §1
as §2, with “PI3Kδ. Potential inhibitors were made up in DMSO and then diluted in the assay to give a final concentration of not exceeding 1% (v/v) DMSO.” for “PI3Kδ.”

[4] = biological target: recombinant human PI3Kβ (6-His(p110-p85α)) (Homo sapiens (Human), UniProt P42338); assay: Enzymatic activity assay for recombinant human PI3Kβ (ADP-Glo); settings: 1.2 nM PI3Kβ, 20 μM ATP, 80 μM DiC8-PIP2, ADP-Glo
Description: as §1
as §2, with “PI3Kδ. Potential inhibitors were made up in DMSO and then diluted in the assay to give a final concentration of not exceeding 1% (v/v) DMSO.” for “PI3Kδ.”

Chain of recombinant human PI3Kδ (6-His(p110-p85α)) (O00329 whole entry): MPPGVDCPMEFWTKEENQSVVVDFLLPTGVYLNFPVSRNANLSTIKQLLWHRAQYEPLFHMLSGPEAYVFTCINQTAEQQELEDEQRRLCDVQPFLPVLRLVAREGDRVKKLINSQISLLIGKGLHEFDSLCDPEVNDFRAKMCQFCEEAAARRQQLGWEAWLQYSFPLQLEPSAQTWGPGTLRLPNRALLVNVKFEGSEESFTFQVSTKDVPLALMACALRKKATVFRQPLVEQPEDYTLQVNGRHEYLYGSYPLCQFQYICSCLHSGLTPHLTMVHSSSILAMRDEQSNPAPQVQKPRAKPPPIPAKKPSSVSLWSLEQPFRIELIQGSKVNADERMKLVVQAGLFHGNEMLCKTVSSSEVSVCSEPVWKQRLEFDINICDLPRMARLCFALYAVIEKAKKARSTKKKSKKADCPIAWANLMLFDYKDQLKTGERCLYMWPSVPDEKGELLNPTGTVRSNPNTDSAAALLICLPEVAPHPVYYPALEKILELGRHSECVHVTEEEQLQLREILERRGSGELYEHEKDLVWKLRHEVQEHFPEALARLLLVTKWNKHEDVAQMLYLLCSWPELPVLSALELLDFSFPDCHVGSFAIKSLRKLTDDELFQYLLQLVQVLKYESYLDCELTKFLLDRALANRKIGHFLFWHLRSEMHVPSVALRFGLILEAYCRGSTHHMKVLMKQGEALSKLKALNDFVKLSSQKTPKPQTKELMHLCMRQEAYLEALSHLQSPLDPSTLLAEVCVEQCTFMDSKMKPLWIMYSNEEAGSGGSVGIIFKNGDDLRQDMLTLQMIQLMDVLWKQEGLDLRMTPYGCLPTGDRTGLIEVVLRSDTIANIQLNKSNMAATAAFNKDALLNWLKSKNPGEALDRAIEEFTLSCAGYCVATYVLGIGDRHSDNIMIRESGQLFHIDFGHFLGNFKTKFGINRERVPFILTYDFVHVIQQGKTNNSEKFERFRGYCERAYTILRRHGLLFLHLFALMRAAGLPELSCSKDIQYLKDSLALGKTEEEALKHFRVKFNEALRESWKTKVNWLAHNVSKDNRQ
Chain of recombinant human PI3Kδ (6-His(p110-p85α)) (P27986 whole entry partner): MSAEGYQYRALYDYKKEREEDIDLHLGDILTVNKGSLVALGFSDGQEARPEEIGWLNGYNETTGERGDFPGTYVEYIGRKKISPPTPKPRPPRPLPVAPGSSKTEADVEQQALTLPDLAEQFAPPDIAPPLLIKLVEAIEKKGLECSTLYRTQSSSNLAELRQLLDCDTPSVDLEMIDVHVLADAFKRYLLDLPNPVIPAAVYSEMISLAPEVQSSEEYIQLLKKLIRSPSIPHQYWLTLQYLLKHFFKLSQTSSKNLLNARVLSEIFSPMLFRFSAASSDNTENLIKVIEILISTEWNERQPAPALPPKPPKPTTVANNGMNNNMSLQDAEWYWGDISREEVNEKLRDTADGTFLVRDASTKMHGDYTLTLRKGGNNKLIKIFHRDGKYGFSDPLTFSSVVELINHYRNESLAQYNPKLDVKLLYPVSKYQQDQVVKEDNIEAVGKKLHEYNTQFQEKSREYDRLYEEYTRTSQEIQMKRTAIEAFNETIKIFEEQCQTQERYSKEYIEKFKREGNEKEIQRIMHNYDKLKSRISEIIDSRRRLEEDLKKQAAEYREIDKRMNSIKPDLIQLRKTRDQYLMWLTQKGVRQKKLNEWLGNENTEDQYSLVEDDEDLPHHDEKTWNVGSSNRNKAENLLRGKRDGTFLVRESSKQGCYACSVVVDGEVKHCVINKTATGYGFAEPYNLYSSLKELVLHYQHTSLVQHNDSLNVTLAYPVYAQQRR
Chain of recombinant human PI3Kβ (6-His(p110-p85α)) (P42338 whole entry): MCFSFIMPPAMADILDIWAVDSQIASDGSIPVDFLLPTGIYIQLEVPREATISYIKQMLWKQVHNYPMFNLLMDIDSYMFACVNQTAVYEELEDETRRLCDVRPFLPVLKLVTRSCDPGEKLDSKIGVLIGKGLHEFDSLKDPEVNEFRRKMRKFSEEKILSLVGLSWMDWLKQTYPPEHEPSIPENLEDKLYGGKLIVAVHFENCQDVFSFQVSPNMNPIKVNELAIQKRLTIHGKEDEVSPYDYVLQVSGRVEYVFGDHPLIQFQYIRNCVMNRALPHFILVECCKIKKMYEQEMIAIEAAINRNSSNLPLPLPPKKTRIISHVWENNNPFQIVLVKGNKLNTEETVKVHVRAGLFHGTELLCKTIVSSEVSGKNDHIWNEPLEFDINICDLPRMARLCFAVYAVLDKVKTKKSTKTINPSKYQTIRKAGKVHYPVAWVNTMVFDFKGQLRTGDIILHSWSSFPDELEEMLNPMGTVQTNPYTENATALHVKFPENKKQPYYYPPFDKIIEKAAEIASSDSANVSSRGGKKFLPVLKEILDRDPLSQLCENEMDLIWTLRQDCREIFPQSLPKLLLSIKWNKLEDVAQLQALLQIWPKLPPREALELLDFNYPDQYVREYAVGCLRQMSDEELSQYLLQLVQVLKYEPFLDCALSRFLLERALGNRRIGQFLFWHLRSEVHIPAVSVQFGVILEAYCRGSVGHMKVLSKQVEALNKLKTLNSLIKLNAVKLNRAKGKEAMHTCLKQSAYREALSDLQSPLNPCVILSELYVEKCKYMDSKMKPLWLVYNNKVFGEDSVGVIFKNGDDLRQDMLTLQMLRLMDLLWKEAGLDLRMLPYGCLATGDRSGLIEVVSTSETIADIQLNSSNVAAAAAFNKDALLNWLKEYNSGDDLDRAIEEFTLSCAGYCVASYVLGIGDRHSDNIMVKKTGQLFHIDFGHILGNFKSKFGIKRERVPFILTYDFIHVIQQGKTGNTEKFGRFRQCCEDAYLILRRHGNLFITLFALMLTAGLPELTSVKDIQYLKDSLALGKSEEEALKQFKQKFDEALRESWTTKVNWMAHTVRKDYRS
Chain of recombinant human PI3Kβ (6-His(p110-p85α)) (P27986 whole entry partner): as the sequence (P27986 whole entry partner) above
Chain of recombinant human PI3Kα (6-His(p110-p85α)) (P42336 whole entry): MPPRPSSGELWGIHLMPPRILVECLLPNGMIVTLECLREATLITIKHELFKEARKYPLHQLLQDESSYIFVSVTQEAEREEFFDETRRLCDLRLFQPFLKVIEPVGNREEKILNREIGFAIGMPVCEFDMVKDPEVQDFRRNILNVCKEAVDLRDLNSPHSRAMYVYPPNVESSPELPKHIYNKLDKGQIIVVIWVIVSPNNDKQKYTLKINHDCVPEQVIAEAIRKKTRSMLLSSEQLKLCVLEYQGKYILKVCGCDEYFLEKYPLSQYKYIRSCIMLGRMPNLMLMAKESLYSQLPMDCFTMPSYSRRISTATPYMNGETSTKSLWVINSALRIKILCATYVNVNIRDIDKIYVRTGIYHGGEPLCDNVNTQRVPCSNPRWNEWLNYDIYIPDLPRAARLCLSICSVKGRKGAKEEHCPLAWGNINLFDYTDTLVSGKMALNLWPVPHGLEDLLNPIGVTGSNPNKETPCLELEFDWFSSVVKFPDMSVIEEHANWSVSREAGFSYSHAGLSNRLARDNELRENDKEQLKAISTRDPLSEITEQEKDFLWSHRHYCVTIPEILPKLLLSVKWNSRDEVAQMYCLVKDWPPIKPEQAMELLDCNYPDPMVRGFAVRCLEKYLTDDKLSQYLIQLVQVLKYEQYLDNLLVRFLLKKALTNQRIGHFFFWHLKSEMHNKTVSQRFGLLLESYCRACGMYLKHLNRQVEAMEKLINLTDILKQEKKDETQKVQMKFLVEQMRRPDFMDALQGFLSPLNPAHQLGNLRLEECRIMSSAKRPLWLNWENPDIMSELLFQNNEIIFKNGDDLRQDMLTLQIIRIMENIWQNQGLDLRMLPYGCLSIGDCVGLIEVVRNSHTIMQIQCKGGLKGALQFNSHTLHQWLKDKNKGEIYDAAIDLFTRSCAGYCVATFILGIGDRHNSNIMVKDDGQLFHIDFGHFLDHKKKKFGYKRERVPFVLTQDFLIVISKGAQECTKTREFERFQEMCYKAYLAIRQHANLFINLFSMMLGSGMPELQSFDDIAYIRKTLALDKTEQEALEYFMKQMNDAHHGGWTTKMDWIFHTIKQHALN
Chain of recombinant human PI3Kα (6-His(p110-p85α)) (P27986 whole entry partner): as the sequence (P27986 whole entry partner) above
Chain of recombinant human PI3Kγ ((aa144-1102)-6His) (P48736 144-1102): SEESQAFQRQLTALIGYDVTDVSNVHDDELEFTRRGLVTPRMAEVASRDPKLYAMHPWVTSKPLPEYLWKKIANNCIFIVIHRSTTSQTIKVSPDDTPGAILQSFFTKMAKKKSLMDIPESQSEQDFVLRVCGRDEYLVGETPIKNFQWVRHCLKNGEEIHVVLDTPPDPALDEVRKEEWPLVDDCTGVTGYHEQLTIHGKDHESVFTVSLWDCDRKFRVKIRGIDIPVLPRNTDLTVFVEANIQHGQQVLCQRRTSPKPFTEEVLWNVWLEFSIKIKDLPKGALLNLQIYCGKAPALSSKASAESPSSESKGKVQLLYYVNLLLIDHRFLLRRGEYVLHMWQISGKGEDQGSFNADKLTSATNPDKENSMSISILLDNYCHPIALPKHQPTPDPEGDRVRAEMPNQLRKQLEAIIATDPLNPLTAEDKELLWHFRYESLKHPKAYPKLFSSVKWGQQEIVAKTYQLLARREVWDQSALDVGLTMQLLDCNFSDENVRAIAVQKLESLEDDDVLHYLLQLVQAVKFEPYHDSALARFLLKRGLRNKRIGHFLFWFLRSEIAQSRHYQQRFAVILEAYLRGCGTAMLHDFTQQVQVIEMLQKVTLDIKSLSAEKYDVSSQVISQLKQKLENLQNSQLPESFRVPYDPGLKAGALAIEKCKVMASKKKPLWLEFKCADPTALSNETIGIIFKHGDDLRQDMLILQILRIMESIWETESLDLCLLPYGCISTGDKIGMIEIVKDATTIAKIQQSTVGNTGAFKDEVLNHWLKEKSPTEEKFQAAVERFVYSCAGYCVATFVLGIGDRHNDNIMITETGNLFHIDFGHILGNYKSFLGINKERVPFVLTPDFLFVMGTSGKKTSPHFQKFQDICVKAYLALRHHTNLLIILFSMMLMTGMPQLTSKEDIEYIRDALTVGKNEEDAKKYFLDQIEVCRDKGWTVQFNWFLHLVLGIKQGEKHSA

Row | IC50 [1] | IC50 [2] | IC50 [3] | IC50 [4] | SMILES
1 | 19.4 nM | 1.3 nM | 368 nM | 4880 nM | CNS(=O)(=O)c1cc(-c2sc(Nc3cccc(N4CC(=O)N5CCC[C@H]5C4=O)n3)nc2C)cc2c1C(=O)N([C@@H](C)C1CC1)C2 [Example 23, 2-[(1S)-1-Cyclopropylethyl]-6-[2-({6-[(8aS)-1,4-dioxohexahydropyrrolo[1,2-a]pyrazin-2(1H)-yl]pyridin-2-yl}amino)-4-methyl-1,3-thiazol-5-yl]-N-methyl-3-oxo-2,3-dihydro-1H-isoindole-4-sulfonamide]
2 | 0.4 nM | 0.9 nM | 42 nM | 897 nM | CNS(=O)(=O)c1cc(-c2sc(Nc3cccc(N4CCCS4(=O)=O)n3)nc2C)cc2c1C(=O)N([C@@H](C)C1CC1)C2 [Example 24, 2-[(1S)-1-Cyclopropylethyl]-6-(2-{[6-(1,1-dioxido-1,2-thiazolidin-2-yl)pyridin-2-yl]amino}-4-methyl-1,3-thiazol-5-yl)-N-methyl-3-oxo-2,3-dihydro-1H-isoindole-4-sulfonamide]
3 | 0.7 nM | 1.1 nM | 70 nM | 505 nM | CNS(=O)(=O)c1cc(-c2sc(Nc3cccc(N4CCCC4=O)n3)nc2C)cc2c1C(=O)N([C@@H](C)C(F)(F)F)C2 [Example 25, N-Methyl-6-(4-methyl-2-{[6-(2-oxopyrrolidin-1-yl)pyridin-2-yl]amino}-1,3-thiazol-5-yl)-3-oxo-2-[(2S)-1,1,1-trifluoropropan-2-yl]-2,3-dihydro-1H-isoindole-4-sulfonamide]
4 | 0.5 nM | 1.1 nM | 110 nM | 562 nM | CCNS(=O)(=O)c1cc(-c2sc(Nc3cccc(N(C)C(=O)COC)n3)nc2C)cc2c1C(=O)N([C@@H](C)C1CC1)C2 [Example 26, N-{6-[(5-{2-[(1S)-1-Cyclopropylethyl]-7-(ethylsulfamoyl)-1-oxo-2,3-dihydro-1H-isoindol-5-yl}-4-methyl-1,3-thiazol-2-yl)amino]pyridin-2-yl}-2-methoxy-N-methylacetamide]
5 | 0.7 nM | 0.9 nM | 65 nM | 178 nM | CCNS(=O)(=O)c1cc(-c2sc(Nc3cccc(N4CCOCC4=O)n3)nc2C)cc2c1C(=O)N([C@@H](C)C(F)(F)F)C2 [Example 27, N-Ethyl-6-(4-methyl-2-{[6-(3-oxomorpholin-4-yl)pyridin-2-yl]amino}-1,3-thiazol-5-yl)-3-oxo-2-[(2S)-1,1,1-trifluoropropan-2-yl]-2,3-dihydro-1H-isoindole-4-sulfonamide]
6 | 1.2 nM | 2.6 nM | 318 nM | 798 nM | Cc1nc(Nc2cccc(N3CCOCC3=O)n2)sc1-c1cc2c(c(S(=O)(=O)NC(C)C)c1)C(=O)N([C@@H](C)C(F)(F)F)C2 [Example 28, 6-(4-Methyl-2-{[6-(3-oxomorpholin-4-yl)pyridin-2-yl]amino}-1,3-thiazol-5-yl)-3-oxo-N-(propan-2-yl)-2-[(2S)-1,1,1-trifluoropropan-2-yl]-2,3-dihydro-1H-isoindole-4-sulfonamide]
7 | 0.5 nM | 2.2 nM | 47 nM | 62 nM | Cc1nc(Nc2cccc(N3CCCOC3=O)n2)sc1-c1cc2c(c(S(=O)(=O)NC(C)C)c1)C(=O)N([C@@H](C)C(F)(F)F)C2 [Example 29, 6-(4-Methyl-2-{[6-(2-oxo-1,3-oxazinan-3-yl)pyridin-2-yl]amino}-1,3-thiazol-5-yl)-3-oxo-N-(propan-2-yl)-2-[(2S)-1,1,1-trifluoropropan-2-yl]-2,3-dihydro-1H-isoindole-4-sulfonamide]
8 | 0.5 nM | 1.4 nM | 74 nM | 722 nM | Cc1nc(Nc2cccc(N3CCNC3=O)n2)sc1-c1cc2c(c(S(=O)(=O)NC(C)C)c1)C(=O)N([C@@H](C)C(F)(F)F)C2 [Example 30, 6-(4-Methyl-2-{[6-(2-oxoimidazolidin-1-yl)pyridin-2-yl]amino}-1,3-thiazol-5-yl)-3-oxo-N-(propan-2-yl)-2-[(2S)-1,1,1-trifluoropropan-2-yl]-2,3-dihydro-1H-isoindole-4-sulfonamide]
9 | 0.7 nM | 1.3 nM | 140 nM | 2060 nM | Cc1nc(Nc2cccc(N3CCCC3=O)n2)sc1-c1cc2c(c(S(=O)(=O)NC3COC3)c1)C(=O)N([C@@H](C)C1CC1)C2 [Example 32, 2-[(1S)-1-Cyclopropylethyl]-6-(4-methyl-2-{[6-(2-oxopyrrolidin-1-yl)pyridin-2-yl]amino}-1,3-thiazol-5-yl)-N-(oxetan-3-yl)-3-oxo-2,3-dihydro-1H-isoindole-4-sulfonamide]
10 | 1.4 nM | 1.2 nM | 472 nM | 3420 nM | Cc1nc(Nc2cccc(N3CCOC3=O)n2)sc1-c1cc2c(c(S(=O)(=O)NC3COC3)c1)C(=O)N([C@@H](C)C1CC1)C2 [Example 33, 2-[(1S)-1-Cyclopropylethyl]-6-(4-methyl-2-{[6-(2-oxo-1,3-oxazolidin-3-yl)pyridin-2-yl]amino}-1,3-thiazol-5-yl)-N-(oxetan-3-yl)-3-oxo-2,3-dihydro-1H-isoindole-4-sulfonamide]
11 | 0.5 nM | 0.8 nM | 30 nM | 927 nM | Cc1nc(Nc2cccc(N3CCNC3=O)n2)sc1-c1cc2c(c(S(=O)(=O)NC3COC3)c1)C(=O)N([C@@H](C)C1CC1)C2 [Example 34, 2-[(1S)-1-Cyclopropylethyl]-6-(4-methyl-2-{[6-(2-oxoimidazolidin-1-yl)pyridin-2-yl]amino}-1,3-thiazol-5-yl)-N-(oxetan-3-yl)-3-oxo-2,3-dihydro-1H-isoindole-4-sulfonamide]
12 | 0.9 nM | 1 nM | 53 nM | 484 nM | Cc1nc(Nc2cccc(N3CCCOC3=O)n2)sc1-c1cc2c(c(S(=O)(=O)NC3COC3)c1)C(=O)N([C@@H](C)C1CC1)C2 [Example 35, 2-[(1S)-1-Cyclopropylethyl]-6-(4-methyl-2-{[6-(2-oxo-1,3-oxazinan-3-yl)pyridin-2-yl]amino}-1,3-thiazol-5-yl)-N-(oxetan-3-yl)-3-oxo-2,3-dihydro-1H-isoindole-4-sulfonamide]
13 | 1 nM | 1.2 nM | 50 nM | 113 nM | Cc1nc(Nc2cccc(N3CCCCC3=O)n2)sc1-c1cc2c(c(S(=O)(=O)NC3COC3)c1)C(=O)N([C@@H](C)C(F)(F)F)C2 [Example 36, 6-(4-Methyl-2-{[6-(2-oxopiperidin-1-yl)pyridin-2-yl]amino}-1,3-thiazol-5-yl)-N-(oxetan-3-yl)-3-oxo-2-[(2S)-1,1,1-trifluoropropan-2-yl]-2,3-dihydro-1H-isoindole-4-sulfonamide]
14 | 0.6 nM | 1.1 nM | 67 nM | 395 nM | Cc1nc(Nc2cccc(N3CCCC3=O)n2)sc1-c1cc2c(c(S(=O)(=O)NC3COC3)c1)C(=O)N([C@@H](C)C(F)(F)F)C2 [Example 37, 6-(4-Methyl-2-{[6-(2-oxopyrrolidin-1-yl)pyridin-2-yl]amino}-1,3-thiazol-5-yl)-N-(oxetan-3-yl)-3-oxo-2-[(2S)-1,1,1-trifluoropropan-2-yl]-2,3-dihydro-1H-isoindole-4-sulfonamide]
15 | 1.8 nM | 0.8 nM | 84 nM | 65 nM | CNS(=O)(=O)c1cc(-c2sc(Nc3cccc(N4CCCOC4=O)n3)nc2C)cc2c1C(=O)N(C(C)(C)C)C2 [Example 38, 2-tert-Butyl-N-methyl-6-(4-methyl-2-{[6-(2-oxo-1,3-oxazinan-3-yl)pyridin-2-yl]amino}-1,3-thiazol-5-yl)-3-oxo-2,3-dihydro-1H-isoindole-4-sulfonamide]
